Measured values taken from US5238935A, “N-acyl-tetrahydroisoquinolines as inhibitors of acyl-coenzyme A: cholesterol acyl transferase” (Schering Corporation, priority 1992, dated 1993).

Legend:
ACAT [1] = biological target: T1, ACAT (Rattus norvegicus, UniProt Q7TQM4); test: ACAT assay (in vitro); format: biochemical; details: rat liver microsomes; for inhibition at 25 µM / inhibition at 10 µM: read-out: ACAT Inhibition Screen % Inhibition; for IC50: pH 7.4, 37° C., 10 μM acyl CoA, read-out: ACAT Inhibition Screen IC50
T1 construct: Rat liver microsomes are used as the source of ACAT; from tissue; host or cells: rat liver microsomes
T1 sequence (Q7TQM4 1-524): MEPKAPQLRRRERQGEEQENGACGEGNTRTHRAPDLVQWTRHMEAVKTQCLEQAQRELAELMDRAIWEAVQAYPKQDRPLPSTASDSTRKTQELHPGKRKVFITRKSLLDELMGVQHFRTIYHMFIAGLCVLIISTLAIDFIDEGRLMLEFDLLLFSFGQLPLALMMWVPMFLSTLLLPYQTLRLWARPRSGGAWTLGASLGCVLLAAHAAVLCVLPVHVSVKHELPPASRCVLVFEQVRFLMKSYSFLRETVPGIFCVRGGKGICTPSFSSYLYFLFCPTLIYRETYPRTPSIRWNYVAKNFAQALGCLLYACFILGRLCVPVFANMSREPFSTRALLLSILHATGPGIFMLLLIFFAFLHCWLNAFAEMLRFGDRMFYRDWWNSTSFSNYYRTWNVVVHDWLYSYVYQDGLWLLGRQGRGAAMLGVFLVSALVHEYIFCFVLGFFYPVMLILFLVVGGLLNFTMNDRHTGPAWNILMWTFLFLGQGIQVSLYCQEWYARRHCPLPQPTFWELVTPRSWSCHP
Description: The in vitro activity of compounds of formula I or Ia can be determined by the following procedure.
This assay measures the activity of ACAT by measuring the ACAT-mediated transfer of tritiated oleic acid from acyl-CoA to cholesterol to give labelled cholesterol oleate. Rat liver microsomes are used as the source of ACAT. Assays are performed in round bottom microtiterplates using a total incubation volume of 50μL. Each incubation well receives 10 μL assay buffer (0.5M KHPO4, 10 μM dithiothreitol, pH 7.4), 7.5 μL of 40 mg/mL BSA (Bovine Serum Albumin) and 12.5 μg of microsomal protein. The test compound (in sufficient amount to bring the final concentration to from 0.1 to 25 μM), reference compound, or vehicle control is added and the final volume brought to 47 μL. The microtiterplate is then floated on the surface of a 37° C. water bath for fifteen minutes. Incubations are started by the addition of 3 μL ^3 H-acyl CoA (1 μCi/well, final concentration of 10 μM acyl CoA). The plate is then returned to the water bath for 15 minutes. The incubations are then terminated by application of 15 μL from each incubation to individual lanes on a thin layer plate (Silica Gel GF 20×20 cm). Standards are applied to several lanes so that the cholesterol ester band can be identified. After drying, the plates are eluted with 90:10:1 petroleum ether:diethyl ether:acetic acid. The standards are visualized via iodine vapor, and the regions corresponding to cholesterol ester are scraped into 7 mL scintillation vials. 4 mL of scintillant are added to each vial, and the radioactivity quantified. Background count is determined by the boiled controls. Full activity is determined by activity in the presence of vehicle. The percent inhibition is calculated by subtracting the background from both control and test samples, and the test value is calculated as a percentage of the control. For IC50 determinations, the inhibition is plotted against drug doses on a log scale and the concentration at which 50% inhibiting is obtained is determined.

ACAT [2] = biological target: T1, ACAT; test: ACAT assay (in vitro); format: biochemical; details: rat liver microsomes, read-out: ACAT Inhibition Screen % Inhibition

Structure (SMILES) | inhibition at 25 µM (ACAT [1]) [%] | IC50 (ACAT [1]) [µM] | also measured
CCCCCCCC/C=C\CCCCCCCC(=O)N1CCc2cc(C)c(OC)cc2C1CCc1ccc(Cl)cc1 (centres unmarked) | 4 | – | –
CCCCCCCC/C=C\CCCCCCCC(=O)N1CCc2cc(OC)c(OC)cc2C1Cc1ccc(OC)c(OC)c1 (centres unmarked) | 91 | – | –
CCCCCCCC/C=C\CCCCCCCC(=O)N1CCc2cc(OC)c(OC)cc2C1Cc1ccccc1 (centres unmarked) | 63 | – | –
CCCCCCCC/C=C/CCCCCCCC(=O)N1CCc2cc(OC)c(OC)cc2C1c1ccccc1 (centres unmarked) | – | 8 | inhibition at 10 µM (ACAT [1]): 87%
CCCCCCCC/C=C\CCCCCCCC(=O)N1CCc2cc(OC)c(OC)cc2C1c1ccccc1 (centres unmarked) [N-(6,7-dimethoxy-1-phenyl-1,2,3,4-tetrahydroisoquinoline)-9-Z-octadecenamid] | – | – | inhibition at 10 µM (ACAT [1]): 66%
CCCCCCCC/C=C\CCCCCCCC(=O)N1CCc2ccccc2C1c1cc(Cl)ccc1NC (centres unmarked) [N-[1-(2-methylamino-5-chlorophenyl)-1,2,3,4-tetrahydroisoquinoline]-9-Z-octadecenamide] | – | – | inhibition at 10 µM (ACAT [1]): 10%
CCCCCCCC/C=C\CCCCCCCC(=O)N1Cc2cc(OC)c(OC)cc2CC1c1ccc(OC)c(OC)c1 (centres unmarked) [N-[6,7-dimethoxy-3-(3,4-dimethoxyphenyl)-1,2,3,4-tetrahydroisoquinoline]-9-Z-octadecenamide] | 67 | – | –

The next lines start with results.

inhibition at 25 µM (ACAT [1]) [%] | IC50 (ACAT [1]) [µM] | Structure (SMILES) | also measured
81 | – | CCCCCCCC/C=C\CCCCCCCC(=O)N1CCc2ccccc2C1Cc1ccccc1 (centres unmarked) [R3=C6H5CH2, R4=H, R5=H, R2a=H, R2b=H] | –
73 | – | CCCCCCCC/C=C\CCCCCCCC(=O)N1CCc2cc(O)c(O)cc2C1Cc1ccccc1 (centres unmarked) [R3=C6H5CH2, R4=H, R5=H, R2a=OH, R2b=OH, N-(1-benzyl-6,7-dihydroxy-1,2,3,4-tetrahydroisoquinoline)-9-Z-octadecenamide] | –
86 | – | CCCCCCCC/C=C\CCCCCCCC(=O)N1Cc2cc(OC)c(OC)cc2CC1c1ccccc1 (centres unmarked) [R3=H, R4=C6H5, R5=H, R2a=CH3O, R2b=CH3O, N-(6,7-dimethoxy-3-phenyl1,2,3,4-tetrahydroisoquinoline)-9-Z-octadecenamide] | –
83 | 2.4 | CCCCCCCC/C=C\CCCCCCCC(=O)N1Cc2cc(OC)c(OC)cc2C(c2ccccc2)C1 (centres unmarked) [R3=H, R4=H, R5=C6H5, R2a=CH3O, R2b=CH3O, N-(6,7-dimethoxy-4-phenyl-1,2,3,4-tetrahydroisoquinoline)-9-Z-octadecenamid] | –
100 | 0.74 | CCCCCCCC/C=C\CCCCCCCC(=O)N1CCc2cc(OC)c(OC)cc2C1 [R3=H, R4=H, R5=H, R2a=CH3O, R2b=CH3O] | –
– | 12 | CCCCCCCC/C=C\CCCCCCCC(=O)N1CCc2ccccc2C1 [R3=H, R4=H, R5=H, R2a=H, R2b=H] | inhibition at 100 µM (ACAT [2]): 83%
